# Assay results: ChEMBL document CHEMBL2150853 (Eur J Med Chem, 2011)
# Key:
# [1] = Antiprion activity against mouse prion protein RML infected mouse ScN2a cells assessed as reduction of PrPSc level by Western blot method; format: cell-based
# ScN2a = experiment: Antiprion activity against mouse prion protein RML infected mouse ScN2a cells assessed as drug level required for more than 99 percent reduction of PrPSc level by Western blot method; format: cell-based
# [2] = Antiprion activity against mouse prion protein 22L infected mouse N167 cells assessed as reduction of PrPSc level by Western blot method; format: cell-based
# N167 = experiment: Antiprion activity against mouse prion protein 22L infected mouse N167 cells assessed as drug level required for more than 99 percent reduction of PrPSc level by Western blot method; format: cell-based
# [3] = Antiprion activity against human prion protein Fukuoka-1 infected mouse F3 cells assessed as reduction of PrPSc level by Western blot method; format: cell-based; settings: N2a #58 F3
# N2a #58 F3 = experiment: Antiprion activity against human prion protein Fukuoka-1 infected mouse F3 cells assessed as drug level required for more than 99 percent reduction of PrPSc level by Western blot method; format: cell-based
# [4] = Cytotoxicity against mouse N2A cells assessed as maximal tolerant concentration; format: cell-based; settings: read-out: MTD
# [5] = target: Major prion protein (Homo sapiens) (UniProt P04156); experiment: Binding affinity to truncated human PrP 121-231 at 50 uM by surface plasmon resonance method
# [6] = Effective permeability of the compound at pH 7.4 at 30 to 50 uM by PAMPA assay; format: ADME; settings: read-out: Peff
# human MDR1 [7] = format: ADME, cell-based, Canis lupus familiaris; settings: dog, MDCK-MDR1
# human MDR1 [8] = format: ADME, cell-based, Canis lupus familiaris; settings: dog, MDCK-MDR1; remark: listed apart in the source
# [9] = Permeability from apical to basolateral side of in wild type MDCK cells assessed as mass balance at 10 uM after 2 hrs; format: ADME, cell-based, Canis lupus familiaris; settings: dog, read-out: permeability
# [10] = Permeability from basolateral to apical side of in wild type MDCK cells assessed as mass balance at 10 uM after 2 hrs; format: ADME, cell-based, Canis lupus familiaris; settings: dog, read-out: permeability
# human MDR1 [11] = format: ADME, cell-based, Canis lupus familiaris; settings: dog, MDCK-MDR1; read-out: permeability
# human MDR1 [12] = experiment: Permeability from basolateral to apical side of in MDCK cells overexpressing human MDR1 assessed as mass balance at 10 uM after 2 hrs; format: ADME, cell-based, Canis lupus familiaris; settings: dog, read-out: permeability
# MDCK [13] = experiment: Permeability from apical to basolateral side of in wild type MDCK cells assessed as cell retention at 10 uM after 2 hrs; format: ADME, cell-based, Canis lupus familiaris; settings: dog
# MDCK [14] = experiment: Permeability from basolateral to apical side of in wild type MDCK cells assessed as adsorption on transwell at 10 uM after 2 hrs; format: ADME, cell-based, Canis lupus familiaris; settings: dog
# MDCK [15] = format: ADME, cell-based, Canis lupus familiaris; settings: dog, 2 h, 10 µM
# MDCK [16] = format: ADME, cell-based, Canis lupus familiaris; settings: dog, 2 h, 10 µM; remark: listed apart in the source
# MDCK [17] = experiment: Permeability from basolateral to apical side of in wild type MDCK cells assessed as cell retention at 10 uM after 2 hrs; format: ADME, cell-based, Canis lupus familiaris; settings: dog
# MDCK [18] = experiment: Permeability from apical to basolateral side of in P-glycoprotein-mediated MDCK cells over expressing human MDR1 assessed as cell retention at 10 uM after 2 hrs; format: ADME, cell-based, Canis lupus familiaris; settings: dog
# MDCK [19] = experiment: Permeability from basolateral to apical side of in P-glycoprotein-mediated MDCK cells over expressing human MDR1 assessed as cell retention at 10 uM after 2 hrs; format: ADME, cell-based, Canis lupus familiaris; settings: dog
# MDCK [20] = experiment: Permeability from apical to basolateral side of in wild type MDCK cells assessed as adsorption on transwell at 10 uM after 2 hrs; format: ADME, cell-based, Canis lupus familiaris; settings: dog
# in vitro = settings: dog, MDCK
# human MDR1 [21] = experiment: in vitro; settings: dog, MDCK-MDR1
# [22] = Solubility of the compound in phosphate buffer at 50 uM; format: physicochemical
smiles,measurement,setting,value
Clc1ccc2c(NC3CCN(Cc4ccccc4)CC3)c3c(nc2c1)CCCC3,EC50,[1],540 nM
same,Activity,ScN2a,1 µM
same,EC50,[2],420 nM
same,Activity,N167,3 µM
same,EC50,[3],1190 nM
same,Activity,N2a #58 F3,5 µM
same,MNTC,[4],5 µM
same,RUmax,[5],138%
C=C[C@H]1C[N@@]2CC[C@H]1C[C@@H]2[C@@H](O)c1ccnc2ccc(OC)cc12 [QUINIDINE],Papp,[6],11.5 ×10⁻⁶ cm/s
COc1ccc2nc3cc(Cl)ccc3c(Nc3ccc(N4CCN(C(C)=O)CC4)cc3)c2c1,EC50,[1],35 nM
same,Activity,ScN2a,0.1 µM
same,MNTC,[4],5 µM
same,RUmax,[5],210%
same,Papp at up to 50 µM,[6],8.79 ×10⁻⁶ cm/s
COc1ccc2nc3cc(Cl)ccc3c(NC3CCN(CCCc4ccccc4)CC3)c2c1,EC50,[1],93 nM
same,Activity,ScN2a,1 µM
same,EC50,[2],320 nM
same,Activity,N167,1 µM
same,EC50,[3],1040 nM
same,Activity,N2a #58 F3,3 µM
same,MNTC,[4],4 µM
same,RUmax,[5],115%
COc1ccc2nc3cc(Cl)ccc3c(NC3CCN(Cc4ccc(C)cc4)CC3)c2c1,EC50,[1],150 nM
same,Activity,ScN2a,3 µM
same,EC50,[2],620 nM
same,Activity,N167,1 µM
same,EC50,[3],630 nM
same,Activity,N2a #58 F3,3 µM
same,MNTC,[4],5 µM
same,RUmax,[5],69.8%
COc1ccc2nc3cc(Cl)ccc3c(Nc3ccc(N4CCN(C)CC4)cc3)c2c1,EC50,[1],100 nM
same,Activity,ScN2a,0.4 µM
same,EC50,[2],420 nM
same,Activity,N167,1.5 µM
same,EC50,[3],680 nM
same,Activity,N2a #58 F3,1.5 µM
same,MNTC,[4],2.5 µM
same,RUmax,[5],120%
same,Papp at up to 50 µM,[6],8.13 ×10⁻⁶ cm/s
same,"Papp A→B at 2 h, 10 µM",human MDR1 [7],0.14 ×10⁻⁶ cm/s
same,"Papp B→A at 2 h, 10 µM",human MDR1 [8],0.34 ×10⁻⁶ cm/s
same,"recovery at 2 h, 10 µM",[9],11.3%
same,"recovery at 2 h, 10 µM",[10],75.3%
same,"recovery at 2 h, 10 µM",human MDR1 [11],12.6%
same,"recovery at 2 h, 10 µM",human MDR1 [12],73%
same,permeability,MDCK [13],66.4%
same,permeability,MDCK [14],3.5%
same,permeability,MDCK [15],6.1%
same,permeability,MDCK [16],3.1%
same,permeability,MDCK [17],27.5%
same,permeability,MDCK [18],67%
same,permeability,MDCK [19],44.2%
same,permeability,MDCK [20],11.4%
same,"efflux ratio at 2 h, 10 µM",in vitro,1.2
same,"efflux ratio at 2 h, 10 µM",human MDR1 [21],2.4
COc1ccc2nc3cc(Cl)ccc3c(N)c2c1,RUmax,[5],139%
same,Papp at up to 50 µM,[6],14.8 ×10⁻⁶ cm/s
CCN(CC)CCCNc1c2ccc(Cl)cc2nc2ccc(OC)cc12,RUmax,[5],162%
same,Papp at up to 50 µM,[6],22 ×10⁻⁶ cm/s
CCN(CC)CCNc1c2ccc(Cl)cc2nc2ccc(OC)cc12,RUmax,[5],153%
same,Papp at up to 50 µM,[6],21 ×10⁻⁶ cm/s
CCN(CC)CCCC(C)Nc1c2ccc(Cl)cc2nc2ccc(OC)cc12 (configuration not stated) [QUINACRINE],EC50,[1],230 nM
same,Activity,ScN2a,0.8 µM
same,EC50,[2],590 nM
same,MNTC,[4],2.5 µM
same,RUmax,[5],87.3%
same,Papp at up to 50 µM,[6],19.3 ×10⁻⁶ cm/s
same,"Papp A→B at 2 h, 10 µM",human MDR1 [7],1.23 ×10⁻⁶ cm/s
same,"Papp B→A at 2 h, 10 µM",human MDR1 [8],6.7 ×10⁻⁶ cm/s
same,permeability,MDCK [13],80.2%
same,permeability,MDCK [14],3.2%
same,permeability,MDCK [15],5.5%
same,permeability,MDCK [16],3.9%
same,permeability,MDCK [17],27.7%
same,permeability,MDCK [18],35.5%
same,permeability,MDCK [19],24.5%
same,permeability,MDCK [20],5.3%
CN1CCN(c2ccc(Nc3c4c(nc5cc(Cl)ccc35)CCCC4)cc2)CC1,EC50,[1],82 nM
same,Activity,ScN2a,1 µM
same,MNTC,[4],> 10 µM
same,RUmax,[5],127%
CCN(CC)CCCCNc1c2ccc(Cl)cc2nc2ccc(OC)cc12,RUmax,[5],178%
same,Papp at up to 50 µM,[6],16.4 ×10⁻⁶ cm/s
COc1ccc2nc3cc(Cl)ccc3c(N(C)c3ccccc3)c2c1,EC50,[1],2510 nM
same,Activity,ScN2a,5 µM
same,MNTC,[4],8 µM
same,RUmax,[5],43.2%
CN1CCN(c2ccc(Nc3ccnc4cc(Cl)ccc34)cc2)CC1,EC50,[1],140 nM
same,Activity,ScN2a,1 µM
same,EC50,[2],530 nM
same,Activity,N167,2 µM
same,EC50,[3],2040 nM
same,MNTC,[4],10 µM
same,RUmax,[5],165%
COc1ccc2nc3cc(Cl)ccc3c(Nc3ccccc3)c2c1,EC50,[1],540 nM
same,MNTC,[4],5 µM
same,solubility,[22],Insoluble
